2 compounds from EP0167553B1, “NEW THERAPEUTICAL APPLICATION OF AN INDANE DIONE DERIVATIVE AND PHARMACEUTICAL COMPOSITIONS INTENDED TO SAID UTILIZATION” (priority 1983, dated 1985) can be followed below.

“And” between values parts separate entries of the source, which are not always exact repeats. Equal values may be shown once. Read-outs that look alike come from different tables or passages of the source.

The nature of data set [1]: Acute toxicity, single administration, digestive (oral) route. The data set is classed as in vivo. Conditions: mouse, in vivo, po. From the text: (§1) Souris SWISS mâles et femelles de 22 à 25g de poids corporel. Animaux EOPS. (exempte d'organisme pathogène spécifique), en provenance de l'élevage CERJ., 53680 LE GENEST et acclimatés au moins 8 jours à l'animalerie du laboratoire.
(§2) Sauf mention contraire précisée dans les tableaux de résultats, 10 animaux par dose, sexe et cage en MAKROLON SAFI@ de 40/25 cm. Litière de copeaux de bois blanc. Alimentation standard pour rats et souris UAR et eau ordinaire à volonté.
(§3) Ils sont administrés sans jeûne préalable: • - par voie digestive (intubation gastrique par sonde oesophagienne métallique) à raison de 0,5 ml ou 1 ml pour 20 g de poids corporel d'une suspension aqueuse à 3p.100 en gomme arabique du dérivé testé. • - par voie intrapéritonéale à raison de 0,5 ml ou 1 ml pour 20 g d'une suspension du dérivé testé dans le soluté isotonique de chlorure de sodium à 3p.100 en gomme arabique.
(§4) Pendant 6 heures après l'administration unique, puis tous les jours pendant 15 jours.
(§5) S'il y a lieu, les doses létales cinquante (DL50) sont calculées selon les méthodes de: • - Behrens et Karber (B.K.) • - Miller et Tainter (M.T.), cette dernière méthode permettant d'attribuer, pour le seuil de probabilité de P = 0,05 un intervalle de confiance aux DL 50.
(§6) En outre, sont déterminées les DLO et DL100. • - DLO = DMT: Dose Maxima toujours tolérée • - DL100 = DmM: Dose minima toujours Mortelle.

The next data set concerns Souris SWISS. The data set is described as above. It counts as in vivo. Conditions: for létalité, symptomatologie toxique: 10.000 mg/kg VO, single dose, 10 souris mâles et femelles.
From the text: as §1, §2, §3, §4, §5, §6

Data set [2] concerns Rats: Wistar femelles. The data set can be described thus: Atherogenic diet (modified Aubert technique): biochemical examinations and atherogenic risk. The data set is classed as in vivo, Rat Wistar. The arrangement: score général Biochimie / Risque athérogène Score Total: scale not given here. The following applies: for Cholesterol LDL Cholesterol HDL Score / Cholesterol T/ Cholesterol HDL Score: atherogenic risk ratio; for score général Biochimie: sum of the individual biochemical scores. From the text:
(§7) La technique utilisée est celle, légèrement modifiée, de AUBERT D., FERAUD J.C., LACAZE B., PEPINO., PANAK E. et PODESTA M. "Athérogénèse expérimentale chez le Rat Wistar". ATHEROSCLEROSIS 2Q (1974) 263 - 280.
(§8) • - Rats: Wistar femelles, E.O.P.S. en provenance de l'élevage EVIC-CEBA. • - Poids corporel: 160 180 g au départ de l'étude • - Alimentation: UAR A03, enrichi en cholestérol (0,5 %) et en Acide chloique (0,5 %). • - Eau de boisson: eau de ville. • - 15 animaux par lot et par cage MAKROLON SAFI® de 59 x 38,5 cm sur litière de copeaux de bois blanc dépoussiérés. • - Cages placées dans un module animalerie climatisé (20°C * 1°C), à l'humidité constante (50 % ± 10 %). Durée d'éclairement: 12 heures par jour (7 h à 19 h). • - Administration des produits: Après 15 jours de régime athéromateux, on leur administre par voie orale pendant 4 jours 250 000 Ul/kg de vitamine D2 (Stérogyl 15 H) en solution dans l'huile d'olive. On administre ensuite les produits à étudier pendant 4 semaines dès la fin de l'administration de l'agent lésionnel.
(§9) L'étude porte sur 5 Lots de 15 rats (tableau N° IV)
En fin d'étude, on pratique sur tous les animaux survivants les examens suivants: • - Cholestérol total, • - Cholestérol estérifié, • - Cholestérol HDL • - Cholestérol LDL (évaluation), • - Lipides totaux, • - Triglycérides.

Data set [3] deals with Rats: Wistar femelles. Put plainly: Atherogenic diet (modified Aubert technique): histopathological examination. It counts as in vivo, Rat Wistar. Conditions: 100 mg/kg; three parameters scored relative to Clofibrate.
From the text: as §7, §8
Les aortes, les foies et les coeurs sont fixés au Bouitaqueux et inclus à la paraffine après passage par les alcools à concentration croissante et par le toluène.
Les foies sont colorés par la technique à l'hématéine-éosine. Les aortes sont colorées par: • - la technique à l'orcéine - vert lumière afin de mettre en évidence les altérations structurales des lames élastiques. • - la technique à l'acide périodique plus réactif de Schiff pour déceler les dépôts de mucopolysaccharides, • - la technique à l'hématéine plus éosine afin de mettre en évidence les dépôts de calcium.
L'intensité des altérations observées et le degré d'athéromatose sont indiquées par l'un des signes:
• - Pas d'athéromatose 0 • = Très léger degré d'athéromatose 0,5 • + Léger degré d'athéromatose 1 • ++ Moyen degré d'athéromatose 2 • +++Important degré d'athéromatose 3
Les zones athéromateuses sont dénombrées sur une longueur identique pour chacune des aortes examinées. […]

In data set [4] the test system is Rats: Wistar femelles. The data set can be described thus: Atherogenic diet (modified Aubert technique): mortality, body weight, tolerance, overall score. Conditions: 100 mg/kg; for taux de mortalité: lots of 15 rats on atherogenic diet; for Score Total: sum of Biochimie, Risque athérogène, Macroscopie, Histologie. It counts as in vivo, Rat Wistar. The protocol:
as §8, §9
• - Le comportement et l'[…] pondérale des animaux sont étudiés par l'observation quotidienne et les pesées hebdomadaires. L'étude de l'évolution pondérale ne montre pas de différence significative entre les différents lots. C'est un indice de bonne tolérance du traitement. • - La moralité est notée dans chaque lot; elle peut atteindre 30 % des animaux ce qui nécessite des lots de 15 animaux. L'administration chronique de 100 mg/kg de Clofibrate correspond à la dose maximale tolérée par le Rat sain selon nos expériences personnelles.
Les scores obtenus par les différents produits étudiés sont les suivants (Tableau V)

Setting [5] is: 100 mg/kg, 4 weeks, score relative to Clofibrate (Base 1).

Consider `CCOC(=O)C(C)(C)Oc1ccc(Cl)cc1` [Clofibrate], for which the LD50 at 360 h in data set [1] (DL50) turned out to be 2500 ± 235 mg/kg. In addition, the DL50 in the data set with Souris SWISS (mouse, in vivo, po, 360 h) came to 2650 ± 190 mg/kg. Besides, in the data set on Rats: Wistar femelles [2] (100 mg/kg), the “Cholesterol LDL Cholesterol HDL Score/Clofibrate” value came out at 1.00, the “Cholesterol T/ Cholesterol HDL Score/Clofibrate” value came out at 1.00, the “Risque athérogène Score Total” value was 2 and the “Cholesterol LDL Cholesterol HDL Score” value was determined as 5.35. Besides, in the data set with Rats: Wistar femelles [2] (100 mg/kg), the “Cholesterol T/ Cholesterol HDL Score” value is listed as 6.69 and the “score général Biochimie” value is given as 6. Also, in the data set on Rats: Wistar femelles [2] (setting [5]), the “Cholesterol E Score” value was determined as 1.00, the “Cholesterol HDL Score” value turned out to be 1.00, the “Cholesterol LDL Score” value is listed as 1.00 and the “Cholesterol T Score” value was 1.00. Further, in the data set on Rats: Wistar femelles [2] (setting [5]), the “Lipides totaux Score” value came out at 1.00 and the “Triglycerides Score” value came to 1.00. Further, the Histologie score in the data set on Rats: Wistar femelles [3] stood at 3.00. In the data set with Rats: Wistar femelles [4], the “taux de mortalité” value is 4/15 and the “Score Total” value is listed as 13.00.

As to `COc1ccc(C(=O)CC2(O)C(=O)c3ccccc3C2=O)cc1OC` [Produit de l'invention, 2-[(3,4-dimethoxybenzoyl)methyl] 2-hydroxy 1,3-dioxo indane], the LD50 at 360 h in data set [1] (VO, souris mâles et femelles, read-out: DL50) is more than 10000 mg/kg. Further, the “létalité, symptomatologie toxique” value in the data set on Souris SWISS was “ni létalité, ni symptomatologie toxique”. For the same compound, in the data set on Souris SWISS (listed as dérivé), the “létalité, symptomatologie toxique” value is reported as “n'est pas toxique”. The same compound yielded a DLO with Souris SWISS (VO, souris mâles et femelles) not below 10.000 mg/kg. The compound also had a DL100 in the data set on Souris SWISS (mouse, in vivo, 21600 min) of more than 10000 mg/kg. For the same compound, in the data set on Rats: Wistar femelles [2] (100 mg/kg), the “Cholesterol LDL Cholesterol HDL Score/Clofibrate” value worked out at 0.46, the “Cholesterol T/ Cholesterol HDL Score/Clofibrate” value is recorded as 0.44, the “Risque athérogène Score Total” value came out at 0.90 and the “Cholesterol LDL Cholesterol HDL Score” value is listed as 15.63. For the same compound, in the data set with Rats: Wistar femelles [2] (100 mg/kg), the “Cholesterol T/ Cholesterol HDL Score” value was found to be 17.81; the “score général Biochimie” value is 5.6 and 5.67. In the data set with Rats: Wistar femelles [2] (setting [5]), the “Cholesterol E Score” value worked out at 1.05, the “Cholesterol LDL Score” value was 1.04, the “Cholesterol T Score” value came out at 1.14 and the “Lipides totaux Score” value is 1.37. The “Triglycerides Score” value in the data set with Rats: Wistar femelles [2] (setting [5]) is 1.07. Besides, the “activité sur les paramètres biochimiques” value in the data set on Rats: Wistar femelles [2] (compared with Clofibrate at the same dose) is given as “aussi actif que le Clofibrate”. In the data set on Rats: Wistar femelles [2] (dès la dose de 100 mg/kg), the “activité anti-lipémiante” value is “nette activité anti-lipémiante”. For the same compound, the Histologie score in the data set on Rats: Wistar femelles [3] was 1.3 and 1.32. In the data set on Rats: Wistar femelles [4], the “taux de mortalité” value is recorded as 2/15 and the “Score Total” value worked out at 10.46.
